For one test, the system named is HSV-1 strain F or KOS. Description: Inhibition of herpes simplex virus (HSV-1) replication in cell culture (BHK-21 cells, glycoprotein C ELISA). It counts as cell-based. Summed up:
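BHK-21 clone 13 cells infected with HSV-1 F or KOS at MOI 0.05 PFU/cell for 1 h at 37°, washed, then treated with compound in α-MEM/2% FBS for 24 h. Late glycoprotein C quantified by ELISA (mAb C11, HRP/OPD, 450 nm); EC50 from % inhibition.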
Background: ELISA stands for enzyme-linked immunosorbent assay.

In the next test the target is T1, HSV-1 helicase-primase (Human herpesvirus 1, UniProt P10189+P10236).
T1 construct: made in house; host or cells: Sf21 insect cells triply infected with recombinant baculoviruses (UL5, UL8, UL52)
T1 sequence (P10192 whole entry): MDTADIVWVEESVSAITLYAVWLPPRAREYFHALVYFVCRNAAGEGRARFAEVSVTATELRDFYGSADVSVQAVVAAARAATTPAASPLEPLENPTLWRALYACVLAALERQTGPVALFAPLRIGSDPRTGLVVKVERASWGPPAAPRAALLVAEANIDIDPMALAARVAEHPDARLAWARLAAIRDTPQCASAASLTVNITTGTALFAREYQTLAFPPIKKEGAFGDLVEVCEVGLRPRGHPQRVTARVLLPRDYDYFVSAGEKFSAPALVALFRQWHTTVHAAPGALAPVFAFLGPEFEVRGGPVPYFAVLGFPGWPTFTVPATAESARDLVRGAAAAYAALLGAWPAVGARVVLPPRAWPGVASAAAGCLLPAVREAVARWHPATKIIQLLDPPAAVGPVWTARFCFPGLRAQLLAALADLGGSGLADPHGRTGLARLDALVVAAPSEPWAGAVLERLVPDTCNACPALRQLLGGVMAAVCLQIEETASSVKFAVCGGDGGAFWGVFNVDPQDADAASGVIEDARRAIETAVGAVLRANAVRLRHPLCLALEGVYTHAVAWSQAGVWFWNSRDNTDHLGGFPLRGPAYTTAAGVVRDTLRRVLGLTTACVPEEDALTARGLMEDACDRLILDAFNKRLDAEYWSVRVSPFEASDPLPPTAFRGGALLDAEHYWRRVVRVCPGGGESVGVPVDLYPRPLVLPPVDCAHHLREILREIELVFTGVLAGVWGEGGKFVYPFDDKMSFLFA
T1 sequence (P10236 whole entry): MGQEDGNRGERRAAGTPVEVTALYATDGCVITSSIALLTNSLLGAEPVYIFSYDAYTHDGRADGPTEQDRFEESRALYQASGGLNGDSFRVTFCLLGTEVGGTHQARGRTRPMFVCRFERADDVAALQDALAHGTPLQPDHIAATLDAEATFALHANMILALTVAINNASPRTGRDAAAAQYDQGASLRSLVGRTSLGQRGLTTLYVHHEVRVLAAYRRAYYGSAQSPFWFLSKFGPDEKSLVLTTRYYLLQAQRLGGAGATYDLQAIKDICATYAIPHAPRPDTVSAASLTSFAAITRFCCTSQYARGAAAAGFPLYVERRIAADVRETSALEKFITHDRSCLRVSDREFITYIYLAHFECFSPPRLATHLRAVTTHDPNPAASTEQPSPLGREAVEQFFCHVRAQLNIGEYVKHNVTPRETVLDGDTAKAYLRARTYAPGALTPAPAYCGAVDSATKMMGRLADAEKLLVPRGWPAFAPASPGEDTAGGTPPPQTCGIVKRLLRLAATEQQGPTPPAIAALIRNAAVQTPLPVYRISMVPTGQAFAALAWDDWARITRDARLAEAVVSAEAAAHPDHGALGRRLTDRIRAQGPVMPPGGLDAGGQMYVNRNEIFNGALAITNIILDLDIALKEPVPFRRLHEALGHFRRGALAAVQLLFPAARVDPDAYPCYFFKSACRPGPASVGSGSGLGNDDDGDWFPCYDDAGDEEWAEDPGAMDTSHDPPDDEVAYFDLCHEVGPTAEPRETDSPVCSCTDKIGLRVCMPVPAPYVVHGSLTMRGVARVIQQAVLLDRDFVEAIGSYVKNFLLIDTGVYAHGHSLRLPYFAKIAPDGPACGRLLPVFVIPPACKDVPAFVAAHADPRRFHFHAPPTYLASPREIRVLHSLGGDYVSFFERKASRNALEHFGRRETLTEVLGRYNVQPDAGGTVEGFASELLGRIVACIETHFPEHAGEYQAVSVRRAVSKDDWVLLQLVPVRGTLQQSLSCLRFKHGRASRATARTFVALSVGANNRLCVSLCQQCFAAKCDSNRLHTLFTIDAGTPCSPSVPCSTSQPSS
T1 sequence (P10189 whole entry): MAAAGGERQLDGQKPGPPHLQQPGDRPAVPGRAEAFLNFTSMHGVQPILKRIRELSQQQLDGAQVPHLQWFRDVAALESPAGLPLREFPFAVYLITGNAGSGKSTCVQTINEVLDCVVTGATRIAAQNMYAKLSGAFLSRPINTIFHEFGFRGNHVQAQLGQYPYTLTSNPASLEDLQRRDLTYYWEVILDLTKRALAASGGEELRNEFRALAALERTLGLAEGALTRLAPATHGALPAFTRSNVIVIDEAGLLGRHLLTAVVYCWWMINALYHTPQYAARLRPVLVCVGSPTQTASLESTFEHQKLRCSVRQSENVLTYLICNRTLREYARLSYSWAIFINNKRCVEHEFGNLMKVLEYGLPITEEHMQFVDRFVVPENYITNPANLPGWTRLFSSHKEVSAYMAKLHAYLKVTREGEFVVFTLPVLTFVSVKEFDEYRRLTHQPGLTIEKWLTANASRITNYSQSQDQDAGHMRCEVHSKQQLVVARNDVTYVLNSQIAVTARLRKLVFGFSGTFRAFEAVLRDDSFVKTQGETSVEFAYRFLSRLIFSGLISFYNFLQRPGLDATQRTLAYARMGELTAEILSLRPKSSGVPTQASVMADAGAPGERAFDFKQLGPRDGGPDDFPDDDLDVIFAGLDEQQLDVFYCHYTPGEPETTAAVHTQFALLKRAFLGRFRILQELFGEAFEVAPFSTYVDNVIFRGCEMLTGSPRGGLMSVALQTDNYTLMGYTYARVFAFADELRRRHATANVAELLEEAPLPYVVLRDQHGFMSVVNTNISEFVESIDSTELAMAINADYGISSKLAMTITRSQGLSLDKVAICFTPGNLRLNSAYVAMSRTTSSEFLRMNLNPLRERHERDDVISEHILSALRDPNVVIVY
Briefly: HSV-1 DNA-dependent ATPase assay (inhibition of HSV-1 helicase-primase). Type of test: biochemical. The method in brief:
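Holoenzyme (UL5/UL8/UL52) expressed in baculovirus-infected Sf21 cells and purified, used at 3 μg/mL with 4 mM ATP and 25 μM primed M13 ssDNA in HEPES pH 7.5, 5.5 mM MgCl2, 3.3% DMSO. Incubated 20 min at 34°. Released phosphate read by malachite green at 650 nm, and activity taken from net absorbance with versus without inhibitor.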

In another test the test system is HCMV (strain AD169). Description: Inhibition of HCMV replication, plaque reduction assay (PRA, Hs-68 cells). It counts as cell-based, Human Cytomegalovirus (HCMV). To be noted: read-out: PRA CMV EC50. Summed up: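 Hs-68 monolayers (80–90% confluent) were infected with ~50 PFU HCMV AD169 for 2 h at 37°, then given compound in DMEM/5% inactivated FBS, refreshed after 4 days and kept 4 more days. Plaques were counted after formaldehyde fixation and crystal violet staining. EC50 derives from percent plaque reduction versus untreated wells.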

Setting [1] is: Human alphaherpesvirus 1, BHK-21, Group 2 Table 1 entries.
Where [2] appears, read: Human betaherpesvirus 5, AD169, Hs68, Group 2 Table 1 entries.
The mark [3] stands for this setting: Human alphaherpesvirus 1, BHK-21, Group 1 Table 6 entries.
[4] abbreviates: Human betaherpesvirus 5, AD169, Hs68, Group 1 Table 6 entries.
The mark [5] stands for this setting: Human alphaherpesvirus 1, BHK-21, Group 1 Table 5 entries.
Where [6] appears, read: Human betaherpesvirus 5, AD169, Hs68, Group 1 Table 5 entries.

Molecules are shown by their SMILES. pEC50, pIC50: −log10 of the molar value. Where two headings read alike, the source gives them in different places.

In the case of `CCCCN(CCCC)C(=O)C(=O)Nc1ccc(-c2csc(N)n2)cc1` [Example 1, N-{4-(2-Amino-4-thiazolyl)phenyl}-N',N'-dibutylethanediamide], the negative logarithm of the EC50 (pEC50) is 5.54 in the test on HSV-1 strain F or KOS (Human alphaherpesvirus 1, BHK-21, Group 2 Table 2 entries) and less than 5.40 in the test on HCMV (strain AD169) (Human betaherpesvirus 5, AD169, Hs68, Group 2 Table 2 entries). This compound also had a pIC50 at HSV-1 helicase-primase (Group 2 Table 2 entries (A = C(O))) of 5.15.
Consider `CCCCN(CCCC)C(=O)Nc1ccc(-c2csc(N)n2)cc1` [Example 1, N-{4-(2-Amino-4-thiazolyl)phenyl}-N,N-dibutylurea], for which the figures for the negative logarithm of the EC50 (pEC50) in the test on HSV-1 strain F or KOS (setting [1]) and in the test with HCMV (strain AD169) (setting [2]) were 6.10 and 4.43, respectively. Besides, at HSV-1 helicase-primase (Group 2 Table 1 entries), the pIC50 is 5.38.
Take `Nc1nc(-c2ccc(NC(=O)[C@@H]3CCC(=O)N3Cc3ccccc3)cc2)cs1` [Example 2]: the pEC50 with HSV-1 strain F or KOS (setting [3]) is 5.59; in the test with HCMV (strain AD169) (setting [4]), 4.30. This compound also showed a pIC50 on HSV-1 helicase-primase (Group 1 Table 6 entries) of 5.21.
As to `Nc1nc(-c2ccc(NC(=O)[C@H]3CCC(=O)N3CC3CCCCC3)cc2)cs1` [Example 3], the negative-log EC50 (pEC50) was 5.68 with HSV-1 strain F or KOS (setting [3]) and 4.35 in the test on HCMV (strain AD169) (setting [4]). At HSV-1 helicase-primase (Group 1 Table 6 entries), this compound showed a negative-log IC50 (pIC50) of 5.21.
As to `CN(CCc1ccccn1)C(=O)Nc1ccc(-c2csc(N)n2)cc1` [Example 4], the pEC50 was 5.85 with HSV-1 strain F or KOS (setting [1]) and less than 3.84 in the test on HCMV (strain AD169) (setting [2]). In addition, on HSV-1 helicase-primase (Group 2 Table 1 entries), the pIC50 was 5.43.
`Nc1nc(-c2ccc(NC(=O)[C@@H]3CCCN3C(=O)c3ccccc3)cc2)cs1` [Example 5]: the pEC50 is 6.77 with HSV-1 strain F or KOS (setting [3]) and less than 4.05 with HCMV (strain AD169) (setting [4]). Besides, the pIC50 against HSV-1 helicase-primase (Group 1 Table 6 entries) is 5.80.
Regarding `Nc1nc(-c2ccc(NC(=O)[C@@H]3CCCN3C(=O)C3CCCCC3)cc2)cs1` [Example 6], the pEC50 with HSV-1 strain F or KOS (setting [3]) was 7.80; with HCMV (strain AD169) (setting [4]), 4.66. Besides, on HSV-1 helicase-primase (Group 1 Table 6 entries), the pIC50 was 7.28.
The matching figures for `CC(C)(C)OC(=O)N1CCC[C@@H]1C(=O)Nc1ccc(-c2csc(N)n2)cc1` [Example 8]: 5.74, less than 4.08 and 5.12.
For the compound `Nc1nc(-c2ccc(NC(=O)[C@H]3CCCN3C(=O)c3ccccc3)cc2)cs1` [Example 9], the negative logarithm of the EC50 (pEC50) in the test on HSV-1 strain F or KOS (setting [3]) was 6.23; in the test with HCMV (strain AD169) (setting [4]) it was less than 4.06. Further, at HSV-1 helicase-primase (Group 1 Table 6 entries), the pIC50 is 5.80.
For the compound `CN(C(=O)OC(C)(C)C)[C@@H](Cc1ccccc1)C(=O)Nc1ccc(-c2csc(N)n2)cc1` [Example 10], the pEC50 in the test with HSV-1 strain F or KOS (setting [5]) was 7.23; in the test on HCMV (strain AD169) (setting [6]), 4.92. This compound also gave a negative logarithm of the IC50 (pIC50) on HSV-1 helicase-primase (Group 1 Table 5 entries) of 7.05.
In the case of `Nc1nc(-c2ccc(NC(=O)[C@H]3CCCN3C(=O)C3CCCCC3)cc2)cs1` [Example 10], the negative-log EC50 (pEC50) with HSV-1 strain F or KOS (setting [3]) is 7.60; with HCMV (strain AD169) (setting [4]), 4.32. For the same compound, the pIC50 on HSV-1 helicase-primase (Group 1 Table 6 entries) was 6.89.
Regarding `CCCC(CCC)NC(=O)Nc1ccc(-c2csc(N)n2)cc1` [Example 11], the pEC50 in the test with HSV-1 strain F or KOS (setting [1]) was 5.10; in the test with HCMV (strain AD169) (setting [2]), 4.89. Besides, the pIC50 at HSV-1 helicase-primase (Group 2 Table 1 entries) was 4.77.
In the case of `Nc1nc(-c2ccc(NC(=O)[C@H](Cc3ccccc3)N(Cc3ccccc3)C(=O)C3CCCCC3)cc2)cs1` [Example 11], the negative-log EC50 (pEC50) in the test on HSV-1 strain F or KOS (setting [5]) was 6.29; in the test with HCMV (strain AD169) (setting [6]) it was 5.10. On HSV-1 helicase-primase (Group 1 Table 5 entries), this compound gave a negative logarithm of the IC50 (pIC50) of 6.40.
Consider `CC(C)(C)NC(=O)Nc1ccc(-c2csc(N)n2)cc1` [Example 12], for which the negative-log EC50 (pEC50) in the test with HSV-1 strain F or KOS (setting [1]) is 5.36; in the test on HCMV (strain AD169) (setting [2]), less than 4.49. Moreover, the negative-log IC50 (pIC50) against HSV-1 helicase-primase (Group 2 Table 1 entries) is 4.70.
For `CN(CCc1ccccn1)C(=O)Nc1ccc(-c2csc(NC(=O)OC(C)(C)C)n2)cc1` [Example 14], the negative logarithm of the EC50 (pEC50) in the test with HSV-1 strain F or KOS (setting [1]) was 5.49; with HCMV (strain AD169) (setting [2]), 5.70. This compound had a pIC50 at HSV-1 helicase-primase (Group 2 Table 1 entries) of less than 4.00.
The matching figures for `CCCCN(CCCC)C(=O)Nc1ccc(-c2csc(NC(=O)OC(C)(C)C)n2)cc1` [Example 15]: less than 5.22, 5.96 and less than 4.00.
On to `CC(C)(C)CC(=O)N[C@@H](Cc1ccccc1)C(=O)Nc1ccc(-c2csc(N)n2)cc1` [Example 19], for which the pEC50 in the test with HSV-1 strain F or KOS (setting [5]) was 7.40; in the test on HCMV (strain AD169) (setting [6]), 4.68. The same compound showed a pIC50 on HSV-1 helicase-primase (Group 1 Table 5 entries) of 7.29.
On to `Nc1nc(-c2ccc(NC(=O)[C@H](Cc3ccccc3)NS(=O)(=O)N3CCOCC3)cc2)cs1` [Example 25], for which the figures for the pEC50 with HSV-1 strain F or KOS (setting [5]) and with HCMV (strain AD169) (setting [6]) were 7.00 and 4.26, respectively. On HSV-1 helicase-primase (Group 1 Table 5 entries), this compound gave a pIC50 of 6.77.

As a reminder, the pEC50 is the negative decadic logarithm of the EC50, by convention in mol/L. The term pIC50 denotes the IC50 on a negative log10 scale, so that one unit is a factor of ten. Low readings indicate a high IC50, high ones a low IC50.
